From ChEMBL document CHEMBL4346717, “1,2,4-Triazole-quinoline/quinolone hybrids as potential anti-bacterial agents” (Eur J Med Chem, 2019)
Values after ≈ are worked out from the molar mass of the structure shown.

Legend:
Type in all cases: functional
[1] = system: Aggregatibacter actinomycetemcomitans; experiment: Antibacterial activity against Aggregatibacter actinomycetemcomitans ATCC 29524 assessed as zone of inhibition at 10 mg/ml after 3 to 7 days by cup diffusion method; details: read-out: IZ
[2] = system: Aggregatibacter actinomycetemcomitans; experiment: Antibacterial activity against Aggregatibacter actinomycetemcomitans ATCC 29524 after 3 to 7 days by cup diffusion method
[3] = system: Escherichia coli; experiment: Antibacterial activity against Escherichia coli after 3 to 7 days by cup diffusion method
[4] = system: Escherichia coli; experiment: Antibacterial activity against Escherichia coli assessed as zone of inhibition at 10 mg/ml after 3 to 7 days by cup diffusion method; details: read-out: IZ
[5] = system: Bacillus subtilis; experiment: Antibacterial activity against Bacillus subtilis after 3 to 7 days by cup diffusion method
[6] = system: Staphylococcus aureus; experiment: Antibacterial activity against Staphylococcus aureus after 3 to 7 days by cup diffusion method
[7] = system: Pseudomonas aeruginosa; experiment: Antibacterial activity against Pseudomonas aeruginosa assessed as zone of inhibition at 10 mg/ml after 3 to 7 days by cup diffusion method; details: read-out: IZ
[8] = system: Pseudomonas aeruginosa; experiment: Antibacterial activity against Pseudomonas aeruginosa after 3 to 7 days by cup diffusion method
[9] = system: Mycolicibacterium phlei; experiment: Antibacterial activity against Mycobacterium phlei clinical isolate after 3 to 7 days by cup diffusion method
[10] = system: Bacillus subtilis; experiment: Antibacterial activity against Bacillus subtilis assessed as zone of inhibition at 10 mg/ml after 3 to 7 days by cup diffusion method; details: read-out: IZ
[11] = system: Mycolicibacterium phlei; experiment: Antibacterial activity against Mycobacterium phlei clinical isolate assessed as zone of inhibition at 10 mg/ml after 3 to 7 days by cup diffusion method; details: read-out: IZ
[12] = system: Staphylococcus aureus; experiment: Antibacterial activity against Staphylococcus aureus assessed as zone of inhibition at 10 mg/ml after 3 to 7 days by cup diffusion method; details: read-out: IZ
[13] = system: Staphylococcus aureus; experiment: Antibacterial activity against Staphylococcus aureus
[14] = system: Escherichia coli; experiment: Antibacterial activity against Escherichia coli
[15] = Aggregatibacter actinomycetemcomitans, ATCC 29524, read-out: MIC
[16] = Escherichia coli, read-out: MIC
[17] = Bacillus subtilis, read-out: MIC
[18] = Staphylococcus aureus, read-out: MIC
[19] = Pseudomonas aeruginosa, read-out: MIC
[20] = Mycolicibacterium phlei, read-out: MIC

Compound | MIC [2] | MIC [3] | MIC [5] | MIC [8] | MIC [9] | zone of inhibition at 10000 µg/mL [1] | zone of inhibition at 10000 µg/mL [4] | zone of inhibition at 10000 µg/mL [7] | zone of inhibition at 10000 µg/mL [10] | zone of inhibition at 10000 µg/mL [11] | zone of inhibition at 10000 µg/mL [12] | MIC [13] | MIC [14] | further results
CN1CCN(Cn2nc3c(F)cc4c(=O)c(C(=O)O)cn(C5CC5)c4n3c2=S)CC1 |  |  |  |  |  |  |  |  |  |  |  | 0.125 to 8 µg/mL (≈ 0.289 to 18.5 µM) | 0.125 to 8 µg/mL (≈ 0.289 to 18.5 µM) | 
CCN(CC)Cn1nc2c(F)cc3c(=O)c(C(=O)O)cn(C4CC4)c3n2c1=S |  |  |  |  |  |  |  |  |  |  |  | 4 to 32 µg/mL (≈ 9.87 to 78.9 µM) | 4 to 32 µg/mL (≈ 9.87 to 78.9 µM) | 
CC1CNCCN1Cn1nc2c(F)cc3c(=O)c(C(=O)O)cn(C4CC4)c3n2c1=S (stereo not drawn) |  |  |  |  |  |  |  |  |  |  |  | 0.125 to 0.5 µg/mL (≈ 0.289 to 1.16 µM) | 0.125 to 0.5 µg/mL (≈ 0.289 to 1.16 µM) | 
CCn1cc(-c2nc(/N=C/c3ccc(OC)cc3)n[nH]2)c(=O)c2ccc(C)nc21 | >=0.031 - 32 ug ml-1 | >=0.031 - 32 ug ml-1 | >=0.031 - 32 ug ml-1 | >=0.031 - 32 ug ml-1 | >=0.031 - 32 ug ml-1 | 20 to 40 mm | 20 to 40 mm | 20 to 40 mm | 20 to 40 mm | 20 to 40 mm | 20 to 40 mm |  |  | MIC [6]: >=0.031 - 32 ug ml-1
CCn1cc(-c2nc(/N=C/c3ccc(Cl)cc3)n[nH]2)c(=O)c2cc(Br)c(C)nc21 |  |  |  |  |  | 20 to 40 mm | 20 to 40 mm | 20 to 40 mm | 20 to 40 mm | 20 to 40 mm | 20 to 40 mm |  |  | MIC [2, 15]: 3.68 to 6.3 µM (≈ 1.74 to 2.97 µg/mL); MIC [3, 16]: 3.68 to 6.3 µM (≈ 1.74 to 2.97 µg/mL); MIC [5, 17]: 3.68 to 6.3 µM (≈ 1.74 to 2.97 µg/mL); MIC [6, 18]: 3.68 to 6.3 µM (≈ 1.74 to 2.97 µg/mL); MIC [8, 19]: 3.68 to 6.3 µM (≈ 1.74 to 2.97 µg/mL); MIC [9, 20]: 3.68 to 6.3 µM (≈ 1.74 to 2.97 µg/mL)
O=C(O)c1cn(C2CC2)c2c(cc(F)c3nn(CN4CCCCC4)c(=S)n32)c1=O |  |  |  |  |  |  |  |  |  |  |  | 0.125 to 8 µg/mL (≈ 0.299 to 19.2 µM) | 0.125 to 8 µg/mL (≈ 0.299 to 19.2 µM) | 
CCn1cc(-c2nc(NC(=O)c3ccc(F)cc3)n[nH]2)c(=O)c2cc(Br)c(C)nc21 |  |  |  |  |  | 20 to 40 mm | 20 to 40 mm | 20 to 40 mm | 20 to 40 mm | 20 to 40 mm | 20 to 40 mm |  |  | MIC [2, 15]: 3.68 to 6.3 µM (≈ 1.73 to 2.97 µg/mL); MIC [3, 16]: 3.68 to 6.3 µM (≈ 1.73 to 2.97 µg/mL); MIC [5, 17]: 3.68 to 6.3 µM (≈ 1.73 to 2.97 µg/mL); MIC [6, 18]: 3.68 to 6.3 µM (≈ 1.73 to 2.97 µg/mL); MIC [8, 19]: 3.68 to 6.3 µM (≈ 1.73 to 2.97 µg/mL); MIC [9, 20]: 3.68 to 6.3 µM (≈ 1.73 to 2.97 µg/mL)
O=C(O)c1cn(C2CC2)c2c(cc(F)c3nn(CN4CCOCC4)c(=S)n32)c1=O |  |  |  |  |  |  |  |  |  |  |  | 0.125 to 8 µg/mL (≈ 0.298 to 19.1 µM) | 0.125 to 8 µg/mL (≈ 0.298 to 19.1 µM) | 
CCN1CCN(Cn2nc3c(F)cc4c(=O)c(C(=O)O)cn(C5CC5)c4n3c2=S)CC1 |  |  |  |  |  |  |  |  |  |  |  | 0.125 to 8 µg/mL (≈ 0.28 to 17.9 µM) | 0.125 to 8 µg/mL (≈ 0.28 to 17.9 µM) | 

Continued, in another order:

MIC [2] | MIC [3] | MIC [5] | MIC [8] | MIC [9] | Compound | zone of inhibition at 10000 µg/mL [1] | zone of inhibition at 10000 µg/mL [4] | zone of inhibition at 10000 µg/mL [7] | zone of inhibition at 10000 µg/mL [10] | zone of inhibition at 10000 µg/mL [11] | zone of inhibition at 10000 µg/mL [12] | MIC [13] | MIC [14] | further results
>=0.031 - 32 ug ml-1 | >=0.031 - 32 ug ml-1 | >=0.031 - 32 ug ml-1 | >=0.031 - 32 ug ml-1 | >=0.031 - 32 ug ml-1 | CCn1cc(-c2nc(NC(=O)c3ccccc3)n[nH]2)c(=O)c2ccc(C)nc21 | 20 to 40 mm | 20 to 40 mm | 20 to 40 mm | 20 to 40 mm | 20 to 40 mm | 20 to 40 mm |  |  | MIC [6]: >=0.031 - 32 ug ml-1
>=0.031 - 32 ug ml-1 | >=0.031 - 32 ug ml-1 | >=0.031 - 32 ug ml-1 | >=0.031 - 32 ug ml-1 | >=0.031 - 32 ug ml-1 | CCn1cc(-c2nc(/N=C/c3ccccc3O)n[nH]2)c(=O)c2ccc(C)nc21 | 20 to 40 mm | 20 to 40 mm | 20 to 40 mm | 20 to 40 mm | 20 to 40 mm | 20 to 40 mm |  |  | 
>=0.031 - 32 ug ml-1 | >=0.031 - 32 ug ml-1 | >=0.031 - 32 ug ml-1 | >=0.031 - 32 ug ml-1 | >=0.031 - 32 ug ml-1 | CCn1cc(-c2nc(NC(=O)c3ccc(Cl)cc3)n[nH]2)c(=O)c2ccc(C)nc21 | 20 to 40 mm | 20 to 40 mm | 20 to 40 mm | 20 to 40 mm | 20 to 40 mm | 20 to 40 mm |  |  | MIC [6]: >=0.031 - 32 ug ml-1
